# Experimental data: ChEMBL document CHEMBL1201862, “PubChem BioAssay data set” (2004)
# Activity calls are given as the source filed them.
# Tests used:
# Large T antigen = Large T antigen (Simian virus 40, UniProt P03070); type: functional, Betapolyomavirus macacae;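 note: Confirmatory-stage PubChem screen for compounds that inhibit SV40 T antigen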
# Aminopeptidase N = molecular target: T1, Aminopeptidase N (Plasmodium falciparum FcB1/Columbia, UniProt O96935); test: malaria alanyl aminopeptidase activity blockers – biochemical, fluorogenic H-Leu-NHMec substrate, 1536-well (AID 1445); design: species or system Plasmodium falciparum 3D7, 3D7
# T1 sequence (O96935 whole entry): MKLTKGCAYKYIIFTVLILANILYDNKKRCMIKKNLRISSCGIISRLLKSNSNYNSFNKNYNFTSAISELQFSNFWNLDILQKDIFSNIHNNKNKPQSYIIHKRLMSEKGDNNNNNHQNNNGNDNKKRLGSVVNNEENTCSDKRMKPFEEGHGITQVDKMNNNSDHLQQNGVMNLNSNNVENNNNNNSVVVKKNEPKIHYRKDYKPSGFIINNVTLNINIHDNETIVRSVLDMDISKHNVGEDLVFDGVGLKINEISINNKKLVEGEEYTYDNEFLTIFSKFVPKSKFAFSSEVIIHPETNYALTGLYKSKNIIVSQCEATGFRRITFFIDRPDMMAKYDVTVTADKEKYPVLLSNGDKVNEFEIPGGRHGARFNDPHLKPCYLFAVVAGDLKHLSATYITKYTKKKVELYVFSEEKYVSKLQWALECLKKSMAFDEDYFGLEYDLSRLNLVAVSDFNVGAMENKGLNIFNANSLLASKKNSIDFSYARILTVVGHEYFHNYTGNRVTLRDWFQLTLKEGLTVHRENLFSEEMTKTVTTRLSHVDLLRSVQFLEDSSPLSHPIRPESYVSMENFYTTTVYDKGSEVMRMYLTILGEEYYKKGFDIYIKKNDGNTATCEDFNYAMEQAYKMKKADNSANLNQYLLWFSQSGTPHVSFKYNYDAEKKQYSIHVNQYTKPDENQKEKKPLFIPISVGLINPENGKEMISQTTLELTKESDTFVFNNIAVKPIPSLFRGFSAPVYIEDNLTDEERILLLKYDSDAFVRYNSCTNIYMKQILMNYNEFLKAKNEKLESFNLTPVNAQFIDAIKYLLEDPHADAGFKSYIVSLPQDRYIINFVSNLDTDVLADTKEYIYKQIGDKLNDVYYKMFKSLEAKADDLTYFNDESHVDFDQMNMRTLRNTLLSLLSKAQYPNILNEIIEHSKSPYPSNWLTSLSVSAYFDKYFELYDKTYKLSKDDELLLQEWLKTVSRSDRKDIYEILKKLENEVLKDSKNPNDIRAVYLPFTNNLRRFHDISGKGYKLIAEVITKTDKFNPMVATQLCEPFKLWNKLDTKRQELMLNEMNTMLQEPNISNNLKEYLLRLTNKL
# Genome polyprotein = Genome polyprotein (dengue virus type 2, UniProt P29990); test: flavivirus cap methylation enzyme inhibition – biochemical, confirmation dose response, primary screen (AID 588689); type: functional
# Nonstructural protein 1 = Nonstructural protein 1 (Influenza A virus, UniProt Q194T2); type: functional, Influenza A virus (A/California/07/2009(H1N1))
# [1] = viability of PTEN-deleted HCT116 cells – cell-based, HCT116 PTEN knockout, dose response (AID 1047); type: functional;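 note: HCT116 colon tumor cells with PTEN knocked out; cells exposed to compound for 60 hours before readout; potency for loss of cell viability measured by luminescence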
# [2] = viability of HCT116 lacking mutant beta-catenin – cell-based, human colon tumor, dose response (AID 1045); type: functional;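 note: HCT116 colon tumor cells with beta catenin knocked out; cells exposed to compound for 60 hours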
# [3] = molecular target: T2, Microphthalmia-associated transcription factor (Homo sapiens, UniProt O75030); test: reducers of TRPM1 reporter luminescence, concentration series – cell-based, SK-MEL-5, cherry-picked, set 3, MITF inhibitor project, dose response (AID 493073); type: functional;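 note: SK-MEL-5 melanoma cells with luciferase driven by the MITF target TRPM1 promoter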
# T2 sequence (O75030 whole entry): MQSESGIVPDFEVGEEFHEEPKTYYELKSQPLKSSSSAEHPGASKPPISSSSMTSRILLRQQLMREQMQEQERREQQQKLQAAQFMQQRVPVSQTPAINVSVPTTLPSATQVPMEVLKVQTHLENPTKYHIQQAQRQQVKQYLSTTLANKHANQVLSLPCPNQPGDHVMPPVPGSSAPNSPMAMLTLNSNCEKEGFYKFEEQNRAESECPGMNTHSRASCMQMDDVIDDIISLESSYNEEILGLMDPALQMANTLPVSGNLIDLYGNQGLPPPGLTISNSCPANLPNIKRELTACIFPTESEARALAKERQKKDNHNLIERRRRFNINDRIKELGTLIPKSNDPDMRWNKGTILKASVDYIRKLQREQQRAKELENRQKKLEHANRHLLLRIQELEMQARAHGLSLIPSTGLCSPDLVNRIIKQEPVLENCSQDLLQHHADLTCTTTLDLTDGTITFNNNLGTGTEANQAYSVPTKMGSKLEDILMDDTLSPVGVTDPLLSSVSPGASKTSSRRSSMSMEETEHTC
# [4] = molecular target: Heat shock protein HSP 90-alpha (Homo sapiens, UniProt P07900); type: functional, organism-based
# [5] = molecular target: FAD-linked sulfhydryl oxidase ALR (Homo sapiens, UniProt P55789); test: ALR-catalysed DTT oxidation blockers – biochemical, H2O2 detection, luminescence, cherry-pick, dose response (AID 493248)
# [6] = blockers of HIV-1 envelope-mediated cell-cell fusion – cherry-pick, dose response (AID 652057); type: functional, cell-based
# [7] = off-target signal loss in HeLa-CEM21 co-culture – HeLa F-luc CTL cells, cherry-picked, counter-screen for HIV-1 Env fusion inhibitor project, dose response (AID 652040); type: functional, cell-based;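 note: potency for signal decrease marking cytotoxic or nonspecific inhibition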
# [8] = HIV-1 AD8 envelope cell-cell fusion blockers – cherry-pick, dose response (AID 652062); type: functional, cell-based;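 note: luciferase signal from cell-cell fusion driven by HIV-1 clade B AD8 Env; potency is for inhibitors of fusion seen as a drop in luminescence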
# [9] = non-specific 3'UTR reporter inhibition in Clone20-Shn3RL – cell-based, Renilla luciferase, cherry-picked, counter-screen for Shn3 inhibitor project, dose response (AID 624133); type: functional
# [10] = reduction of Shn3 3'UTR-driven luciferase in osteoblasts – cell-based, Clone20 osteoblasts, firefly luciferase, cherry-picked, dose response (AID 624132); type: functional;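 note: firefly luciferase luminescence from reporter carrying the Shn3 3'UTR in osteoblasts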
# Paired box protein Pax-8 = Paired box protein Pax-8 (Homo sapiens, UniProt Q06710); test: PAX8 transcriptional activity inhibition in RMG-I – RMG-I cells, luciferase, cherry-pick, dose response (AID 687027); type: functional, cell-based;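 note: luciferase reporter driven by Pax8 target thyroperoxidase promoter measured by SteadyGlo luminescence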
# P388 = test: cells; type: functional; settings: Mus musculus
# SN12K1 = test: cells; type: functional; settings: Homo sapiens
# P388/ADR = test: cells; type: functional; settings: Mus musculus
# [11] = Luminescence Cell-Based Dose Retest to Confirm Inhibitors of Cancer Stem Cells. [Related pubchem assays (depositor defined):AID2717, AID2721]; type: functional; settings: Homo sapiens
# [12] = blockers of HIV-1 ZM109 envelope-driven cell-cell fusion – HeLa effector, CEM target cells, luciferase, cherry-pick, dose response (AID 652058); type: functional, cell-based;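 note: luciferase signal from HIV-1 Env mediated cell-cell fusion of effector and target cells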
# [13] = Trypanosoma cruzi growth suppression in host cells – NIH3T3 host cells, beta-gal luminescence, confirmation (AID 2044); type: functional, cell-based;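 note: intracellular parasites grown in NIH/3T3 mouse fibroblasts as host cells; luminescent beta-galactosidase reporter signal from transgenic T. cruzi replicating inside host cells; inhibitors lower the luminescence signal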
# [14] = NIH3T3 cell viability loss – ATP luminescence, mouse fibroblasts, counter-screen, dose response (AID 2010); type: functional, cell-based;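 note: cells exposed to compound for about 90 hours before reading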
# [15] = molecular target: T3, Heat shock factor protein 1 (Mus musculus, UniProt P38532); test: enhancement of HSF1-driven luciferase signal – cell-based, NIH3T3, luminescence, dose retest, confirmation (AID 435004); type: functional;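 note: stress induced by proteasome inhibitor MG132 added 30 min after compound; luciferase reporter driven by HSF1 response element in NIH3T3 cells; actives raise luminescence as potentiators of the MG132 stress response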
# T3 sequence (P38532 whole entry): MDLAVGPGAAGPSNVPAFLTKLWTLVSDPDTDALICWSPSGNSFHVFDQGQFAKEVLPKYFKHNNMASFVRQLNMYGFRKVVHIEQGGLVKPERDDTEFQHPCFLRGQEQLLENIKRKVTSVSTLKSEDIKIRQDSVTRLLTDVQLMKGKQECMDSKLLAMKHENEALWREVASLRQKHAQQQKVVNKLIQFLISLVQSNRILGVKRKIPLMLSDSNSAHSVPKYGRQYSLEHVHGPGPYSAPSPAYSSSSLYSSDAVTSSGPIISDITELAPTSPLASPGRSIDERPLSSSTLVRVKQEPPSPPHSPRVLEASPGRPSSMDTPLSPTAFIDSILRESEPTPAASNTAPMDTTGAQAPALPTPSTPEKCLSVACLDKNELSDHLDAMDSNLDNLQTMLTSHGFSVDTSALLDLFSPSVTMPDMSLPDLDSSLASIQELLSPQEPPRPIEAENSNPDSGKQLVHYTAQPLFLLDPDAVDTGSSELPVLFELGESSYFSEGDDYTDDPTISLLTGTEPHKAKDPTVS
# Fatty acid synthase = Fatty acid synthase (Homo sapiens, UniProt P49327); test: inhibition of human FAS-TE enzyme activity – biochemical, kinetic fluorescence intensity, dose response (AID 624326); type: functional;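 note: rate of fluorescence rise from hydrolysis of a fluorogenic O-methyl fluorescein ester substrate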
# Fatty acid synthase, sequence (P49327 whole entry): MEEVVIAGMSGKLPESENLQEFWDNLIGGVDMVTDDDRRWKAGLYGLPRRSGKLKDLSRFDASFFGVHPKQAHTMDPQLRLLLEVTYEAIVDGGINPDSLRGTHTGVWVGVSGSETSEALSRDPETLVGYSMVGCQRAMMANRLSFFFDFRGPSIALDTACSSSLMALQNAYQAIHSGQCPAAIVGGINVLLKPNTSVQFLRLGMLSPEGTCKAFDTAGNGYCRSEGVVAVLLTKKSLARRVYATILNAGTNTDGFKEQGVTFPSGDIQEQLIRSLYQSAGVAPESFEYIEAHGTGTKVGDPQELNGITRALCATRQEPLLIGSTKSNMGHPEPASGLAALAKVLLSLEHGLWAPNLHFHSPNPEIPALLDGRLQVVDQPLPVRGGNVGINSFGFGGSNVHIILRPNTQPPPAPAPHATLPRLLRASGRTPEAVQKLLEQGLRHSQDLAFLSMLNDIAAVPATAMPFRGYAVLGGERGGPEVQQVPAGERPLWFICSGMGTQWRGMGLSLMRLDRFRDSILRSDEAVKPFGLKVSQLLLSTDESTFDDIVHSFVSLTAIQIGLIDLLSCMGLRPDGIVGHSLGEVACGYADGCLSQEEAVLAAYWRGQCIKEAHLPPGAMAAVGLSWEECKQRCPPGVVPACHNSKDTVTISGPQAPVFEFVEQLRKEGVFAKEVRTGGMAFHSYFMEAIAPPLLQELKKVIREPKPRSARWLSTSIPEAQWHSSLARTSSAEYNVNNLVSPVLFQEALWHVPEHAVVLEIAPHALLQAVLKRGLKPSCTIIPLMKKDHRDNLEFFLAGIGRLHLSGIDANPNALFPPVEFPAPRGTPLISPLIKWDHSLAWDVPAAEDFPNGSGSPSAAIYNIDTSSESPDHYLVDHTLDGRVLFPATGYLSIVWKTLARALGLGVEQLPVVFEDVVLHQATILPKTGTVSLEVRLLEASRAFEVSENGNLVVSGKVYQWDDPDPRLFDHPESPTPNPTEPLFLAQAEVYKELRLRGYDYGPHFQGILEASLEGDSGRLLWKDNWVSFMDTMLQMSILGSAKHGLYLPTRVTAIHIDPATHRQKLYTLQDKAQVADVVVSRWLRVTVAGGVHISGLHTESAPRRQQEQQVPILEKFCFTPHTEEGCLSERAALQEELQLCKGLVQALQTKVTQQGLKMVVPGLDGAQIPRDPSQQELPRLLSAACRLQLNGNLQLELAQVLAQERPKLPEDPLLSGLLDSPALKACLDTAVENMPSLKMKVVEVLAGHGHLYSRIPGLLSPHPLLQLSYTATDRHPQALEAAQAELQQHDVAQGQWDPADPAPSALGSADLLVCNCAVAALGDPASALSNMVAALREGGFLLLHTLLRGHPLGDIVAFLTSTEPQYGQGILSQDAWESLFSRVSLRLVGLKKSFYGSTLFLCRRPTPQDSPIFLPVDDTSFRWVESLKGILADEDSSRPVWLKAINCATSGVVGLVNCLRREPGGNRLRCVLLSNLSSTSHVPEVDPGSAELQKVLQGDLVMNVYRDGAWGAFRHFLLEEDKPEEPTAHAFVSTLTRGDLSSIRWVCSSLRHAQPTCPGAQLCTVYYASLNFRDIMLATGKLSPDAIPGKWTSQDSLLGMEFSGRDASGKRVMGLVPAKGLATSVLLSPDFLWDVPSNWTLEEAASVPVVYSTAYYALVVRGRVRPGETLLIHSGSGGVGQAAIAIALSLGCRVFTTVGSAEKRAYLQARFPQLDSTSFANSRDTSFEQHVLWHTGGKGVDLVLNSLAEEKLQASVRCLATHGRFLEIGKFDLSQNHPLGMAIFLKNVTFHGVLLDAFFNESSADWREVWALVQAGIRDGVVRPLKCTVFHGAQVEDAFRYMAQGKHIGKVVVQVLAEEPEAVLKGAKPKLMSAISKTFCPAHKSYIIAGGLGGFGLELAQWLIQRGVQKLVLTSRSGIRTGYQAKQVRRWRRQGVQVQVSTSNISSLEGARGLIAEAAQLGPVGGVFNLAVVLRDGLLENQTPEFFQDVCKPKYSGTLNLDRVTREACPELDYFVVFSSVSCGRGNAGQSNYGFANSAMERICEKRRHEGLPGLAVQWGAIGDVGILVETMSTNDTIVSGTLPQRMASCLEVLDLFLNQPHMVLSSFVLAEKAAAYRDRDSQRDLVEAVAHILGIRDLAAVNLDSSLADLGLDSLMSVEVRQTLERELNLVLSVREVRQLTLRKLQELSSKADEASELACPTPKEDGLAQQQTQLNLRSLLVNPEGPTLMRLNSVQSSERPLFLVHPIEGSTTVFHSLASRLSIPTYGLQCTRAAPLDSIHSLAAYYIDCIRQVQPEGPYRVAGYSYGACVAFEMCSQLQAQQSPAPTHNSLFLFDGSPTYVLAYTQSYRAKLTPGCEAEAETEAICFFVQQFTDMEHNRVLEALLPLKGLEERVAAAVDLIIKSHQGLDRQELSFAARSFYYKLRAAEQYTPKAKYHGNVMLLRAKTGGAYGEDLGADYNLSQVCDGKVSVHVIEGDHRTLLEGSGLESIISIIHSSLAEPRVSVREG
# Large T antigen, sequence (P03070 whole entry): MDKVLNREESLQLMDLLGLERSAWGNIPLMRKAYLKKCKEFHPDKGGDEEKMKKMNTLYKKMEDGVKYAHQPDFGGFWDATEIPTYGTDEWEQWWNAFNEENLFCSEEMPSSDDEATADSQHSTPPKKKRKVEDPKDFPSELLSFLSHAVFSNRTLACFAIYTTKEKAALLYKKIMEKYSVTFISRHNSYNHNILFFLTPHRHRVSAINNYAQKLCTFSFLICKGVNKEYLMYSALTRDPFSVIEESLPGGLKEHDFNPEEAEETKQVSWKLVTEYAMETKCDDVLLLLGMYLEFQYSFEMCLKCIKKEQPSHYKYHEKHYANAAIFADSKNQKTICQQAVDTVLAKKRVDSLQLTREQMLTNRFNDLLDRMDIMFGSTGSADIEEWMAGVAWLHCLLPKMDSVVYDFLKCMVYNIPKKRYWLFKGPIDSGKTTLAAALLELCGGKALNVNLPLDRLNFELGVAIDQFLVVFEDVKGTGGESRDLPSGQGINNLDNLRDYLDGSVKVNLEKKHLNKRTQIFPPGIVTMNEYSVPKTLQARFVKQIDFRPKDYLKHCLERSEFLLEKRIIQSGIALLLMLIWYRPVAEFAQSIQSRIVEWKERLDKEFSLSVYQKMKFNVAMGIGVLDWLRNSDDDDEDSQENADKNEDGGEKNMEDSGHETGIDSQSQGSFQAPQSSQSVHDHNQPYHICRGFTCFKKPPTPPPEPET
# Nonstructural protein 1, sequence (Q194T2 whole entry): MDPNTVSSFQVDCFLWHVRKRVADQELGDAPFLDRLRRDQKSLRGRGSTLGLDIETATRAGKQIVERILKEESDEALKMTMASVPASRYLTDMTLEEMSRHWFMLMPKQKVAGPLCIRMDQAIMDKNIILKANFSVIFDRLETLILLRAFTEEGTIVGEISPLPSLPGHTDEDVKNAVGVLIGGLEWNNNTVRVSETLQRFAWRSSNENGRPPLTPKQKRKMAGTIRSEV
# FAD-linked sulfhydryl oxidase ALR, sequence (P55789 whole entry, the tested form may be a part): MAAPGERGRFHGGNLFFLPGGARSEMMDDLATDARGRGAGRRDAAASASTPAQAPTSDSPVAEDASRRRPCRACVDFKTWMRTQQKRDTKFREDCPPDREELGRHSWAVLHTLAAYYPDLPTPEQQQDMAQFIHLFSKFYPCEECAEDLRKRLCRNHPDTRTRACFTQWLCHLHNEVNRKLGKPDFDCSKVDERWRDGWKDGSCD
# Genome polyprotein, sequence (P29990 2492-3391 limits assumed): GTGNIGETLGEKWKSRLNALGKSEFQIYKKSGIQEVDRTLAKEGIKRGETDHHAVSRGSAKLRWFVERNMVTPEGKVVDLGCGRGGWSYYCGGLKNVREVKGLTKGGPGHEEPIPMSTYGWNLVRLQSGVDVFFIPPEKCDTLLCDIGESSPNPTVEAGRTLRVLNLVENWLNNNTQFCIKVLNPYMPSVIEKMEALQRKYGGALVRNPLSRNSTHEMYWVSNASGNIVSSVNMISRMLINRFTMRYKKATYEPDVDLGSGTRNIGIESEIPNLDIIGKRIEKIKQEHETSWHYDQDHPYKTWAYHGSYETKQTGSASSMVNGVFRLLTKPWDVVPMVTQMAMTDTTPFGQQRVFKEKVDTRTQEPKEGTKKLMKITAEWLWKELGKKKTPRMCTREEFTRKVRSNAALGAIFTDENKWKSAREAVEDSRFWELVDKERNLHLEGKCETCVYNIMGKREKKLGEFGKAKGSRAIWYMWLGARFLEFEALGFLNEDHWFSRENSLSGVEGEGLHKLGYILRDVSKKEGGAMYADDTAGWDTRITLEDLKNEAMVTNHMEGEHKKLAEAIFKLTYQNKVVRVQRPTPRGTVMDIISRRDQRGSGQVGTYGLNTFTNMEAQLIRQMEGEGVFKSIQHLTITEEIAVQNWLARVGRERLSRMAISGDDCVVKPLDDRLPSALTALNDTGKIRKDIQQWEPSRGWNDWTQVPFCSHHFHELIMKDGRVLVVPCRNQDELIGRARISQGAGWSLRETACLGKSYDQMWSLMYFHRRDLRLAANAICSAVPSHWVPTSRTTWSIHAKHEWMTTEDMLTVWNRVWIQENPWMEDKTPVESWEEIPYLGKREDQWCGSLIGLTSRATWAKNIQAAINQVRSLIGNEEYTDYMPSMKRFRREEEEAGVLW
# Paired box protein Pax-8, sequence (Q06710 whole entry): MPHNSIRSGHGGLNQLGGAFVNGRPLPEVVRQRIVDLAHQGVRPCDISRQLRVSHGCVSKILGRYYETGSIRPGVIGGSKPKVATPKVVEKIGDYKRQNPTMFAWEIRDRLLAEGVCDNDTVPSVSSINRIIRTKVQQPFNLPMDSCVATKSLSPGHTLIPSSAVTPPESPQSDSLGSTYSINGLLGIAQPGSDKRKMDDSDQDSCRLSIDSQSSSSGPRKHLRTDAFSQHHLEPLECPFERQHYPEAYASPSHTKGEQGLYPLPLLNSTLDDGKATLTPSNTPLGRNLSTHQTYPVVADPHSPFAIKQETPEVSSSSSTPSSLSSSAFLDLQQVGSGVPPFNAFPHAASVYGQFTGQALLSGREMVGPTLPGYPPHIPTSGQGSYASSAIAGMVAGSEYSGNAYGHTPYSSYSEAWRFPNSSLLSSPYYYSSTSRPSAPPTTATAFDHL
smiles,measurement,setting,value
Cc1ccc(C)c(S(=O)(=O)Nc2ccc(O)cc2)c1,IC50,Large T antigen,11.1 µM (active)
COC(=O)c1ccc(COc2ccccc2/C=N/Nc2cccc(C(=O)O)c2)cc1,IC50,Aminopeptidase N,47 µM (active)
same,IC50,Genome polyprotein,76.2 µM (active)
O=C1c2ccccc2C(=O)N1CCc1c[nH]c2ccc(O)cc12,IC50,Large T antigen,59.7 µM (active)
O=C(CC(NCc1ccccn1)C(=O)O)Nc1ccccc1Cl (stereo not drawn),IC50,Nonstructural protein 1,1.48 µM (active)
COc1ccc(NC(=O)CCC(=O)N/N=C/c2ccc([N+](=O)[O-])s2)cc1,EC50,[1],11.5 µM (active)
same,EC50,[2],11.3 µM (active)
same,AC50,[3],7.62 µM (active)
same,AC50,[4],2.7 µM (active)
CN(C)c1ccc(NC(=O)CSc2nnc(-c3cnccn3)n2C)cc1,IC50,Large T antigen,17.8 µM (active)
CN(CCCNC(=O)C1CCCN(S(=O)(=O)c2c[nH]cn2)C1)c1ccccc1 (stereo not drawn),AC50,[5],0.085 µM (active)
CCOC(=O)c1cccc(NS(=O)(=O)c2ccc(NC(C)=O)cc2)c1,AC50,[6],4.26 µM (active)
same,AC50,[7],39.7 µM (active)
same,AC50,[8],10 µM (active)
COC(=O)C1=C(c2ccc(F)cc2OCc2ccccc2)C[C@@H]2CC[C@H]1N2C(=O)NC1Cc2ccccc2C1,AC50,[9],29.3 µM (active)
same,AC50,[10],8 µM (active)
same,AC50,Paired box protein Pax-8,9.27 µM (active)
COc1cc2cc(c1Cl)N(C)C(=O)C[C@H](OC(=O)[C@H](C)N(C)C(C)=O)[C@]1(C)O[C@H]1[C@H](C)[C@@H]1C[C@@](O)(NC(=O)O1)[C@H](OC)/C=C/C=C(/C)C2,GI50,P388,0.025 µM (active)
same,GI50,SN12K1,0.0262 µM (active)
same,GI50,P388/ADR,0.025 µM (active)
Cc1ccc2nc(-c3cccc(NS(C)(=O)=O)c3)cc(-c3ccccc3)c2c1,AC50,[11],4.13 µM (active)
same,AC50,[4],4.75 µM (active)
CCN(CC)c1ccc(CN(C(=O)c2cccs2)C2CCS(=O)(=O)C2)cc1 (stereo not drawn),AC50,[5],2.65 µM (active)
C/C=C/c1cc2c(c(=O)o1)C(=O)[C@@H](O)[C@H](C)O2,GI50,P388,2.77 µM (inactive)
same,GI50,SN12K1,17.1 µM (inactive)
same,GI50,P388/ADR,2.89 µM (inactive)
COC(=O)NC1C(C)OC(OC2C/C=C(/C)C3C=CC4C(OC5CC(OC6CCC(OC7CC(O)C(OC8CCC(O)C(C)O8)C(C)O7)C(C)O6)C(OC(C)=O)C(C)O5)C(C)CC(C)C4C3(C)/C(O)=C3/C(=O)OC4(CC(C=O)=CC(O)C4/C=C\2C)C3=O)CC1(C)[N+](=O)[O-] (stereo not drawn),GI50,P388,0.337 µM (active)
same,GI50,SN12K1,0.262 µM (active)
same,GI50,P388/ADR,2.64 µM (inactive)
COC(=O)c1ccc(N2CCc3ccccc32)c([N+](=O)[O-])c1,IC50,Nonstructural protein 1,24 µM (active)
CC(C)CCSc1nc(N)c(C#N)cc1C#N,AC50,[12],32.3 µM (active)
same,EC50,[13],0.542 µM (active)
same,AC50,[6],26.2 µM (active)
same,AC50,[7],23.4 µM (active)
same,AC50,[8],25.6 µM (active)
same,EC50,[14],> 60 µM (not active)
C=CC[N+](CCO)(CCO)CCCCCCCCCCCCCCCCCC,GI50,P388,0.486 µM (active)
same,GI50,SN12K1,6.08 µM (inactive)
same,GI50,P388/ADR,5.3 µM (inactive)
Sc1n[nH]c(-c2csc3c2CCCC3)n1,AC50,[5],0.044 µM (active)
N/C(S)=N/N=C/c1ccc(O)cn1,GI50,P388,1.95 µM (inactive)
same,GI50,SN12K1,3.61 µM (inactive)
COc1ccc(C)cc1NC(=O)CSc1ccc(-c2ccccn2)nn1,IC50,Nonstructural protein 1,9.77 µM (active)
O=c1cccc2n1CC1CC2CN(c2nc(N3CCCCC3)nc(N3CCCCC3)n2)C1 (stereo not drawn),AC50,[12],1.58 µM (active)
same,AC50,[6],1.69 µM (active)
same,AC50,[7],3.76 µM (active)
same,AC50,[8],6.73 µM (active)
same,EC50,[15],> 260 µM (inactive)
Cc1nc(C)c(-c2csc(Nc3ccc(F)cc3)n2)s1,AC50,[5],0.185 µM (active)
Cc1ccc(CN2CCSc3ccc(C(=O)NCCCN4CCN(C)CC4)cc32)cc1,AC50,[5],0.195 µM (active)
Nc1c(/N=N/c2ccc(-c3ccc(/N=N/c4c(O)ccc5cc(S(=O)(=O)O)cc(S(=O)(=O)O)c45)cc3)cc2)c(S(=O)(=O)O)cc2cc(S(=O)(=O)O)c(/N=N/c3ccccc3)c(O)c12,GI50,P388,> 100 µM (inactive)
same,GI50,SN12K1,> 100 µM (inactive)
O=C(COc1ccccc1)Nc1nc(-c2ccc(S(=O)(=O)N3CCOCC3)cc2)cs1,IC50,Fatty acid synthase,0.489 µM (active)
